Measured values: patent US20260262643A1, “HERBICIDAL BENZOXAZINES” (FMC CORPORATION, priority 2022, published 2026)

Legend:
[1] = test system: blackgrass; experiment: Test A preemergence; type: in vivo, Alopecurus myosuroides
Outline: (§1)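 Visual injury ratings on a 0–100 scale (100 = complete control) versus untreated controls, taken 10 days after treatment in greenhouse. Preemergence: directed soil spray onto seeded loam/sand. Postemergence: foliar application at one- to two-leaf stage, plants 2–10 cm. Formulation: non-phytotoxic solvent plus surfactant.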

[2] = test system: corn; experiment: Test A preemergence; type: in vivo, Zea mays
From the text: (§2) Seeds of plant species selected from barnyardgrass (Echinochloa crusgalli), blackgrass (Alopecurus myosuroides), corn (Zea mays), foxtail, giant (giant foxtail, Setaria faberi), goosegrass (Eleusine indica), kochia (Bassia scoparia), oat, wild (wild oat, Avena fatua), pigweed, palmer (palmer amaranth, palmer pigweed, Amaranthus palmeri), Pigweed, Redroot (redroot pigweed, Amaranthus retroflexus), ragweed (common ragweed, Ambrosia artemisiifolia), ryegrass, Italian (italian ryegrass, Lolium multiflorum), soybean (Glycine max), and wheat (Triticum aestivum) were planted into a blend of loam soil and sand and treated preemergence with a directed soil spray using test chemicals formulated in a non-phytotoxic solvent mixture which included a surfactant. At the same time, plants selected from these crops and weed species and also galium (catchweed bedstraw, Galium aparine) and horseweed (Erigeron canadensis) were planted in pots containing the same blend of loam soil and sand and treated with postemergence applications of test chemicals formulated in the same manner. Plants ranged in height from 2 to 10 cm and were in the one- to two-leaf stage for the postemergence treatment. Treated plants and untreated controls were maintained in a greenhouse for 10 days, after which time all treated plants were compared to untreated controls and visually evaluated for injury. Plant response ratings, summarized in Table A, are based on a 0 to 100 scale where 0 is no effect and 100 is complete control. A dash (-) response means no test result.

[3] = test system: foxtail, giant; experiment: Test A preemergence; type: in vivo, Setaria faberi
Outline: as §1

[4] = test system: goosegrass; experiment: Test A preemergence; type: in vivo, Eleusine indica
Outline: as §1

[5] = test system: kochia; experiment: Test A preemergence; type: in vivo, Bassia scoparia
Outline: as §1

[6] = test system: oat, wild; experiment: Test A preemergence; type: in vivo, Avena fatua
From the text: as §2

[7] = test system: pigweed, palmer; experiment: Test A preemergence; type: in vivo, Amaranthus palmeri
Outline: as §1

[8] = test system: ragweed; experiment: Test A preemergence; type: in vivo, Ambrosia artemisiifolia
Outline: as §1

[9] = test system: ryegrass, Italian; experiment: Test A preemergence; type: in vivo, Lolium multiflorum
Outline: as §1

[10] = test system: soybean; experiment: Test A preemergence; type: in vivo, Glycine max
From the text: as §2

[11] = test system: wheat; experiment: Test A preemergence; type: in vivo, Triticum aestivum
From the text: as §2

[12] = test system: blackgrass; experiment: Test A postemergence; type: in vivo, Alopecurus myosuroides
Outline: as §1

[13] = test system: corn; experiment: Test A postemergence; type: in vivo, Zea mays
From the text: as §2

[14] = test system: foxtail, giant; experiment: Test A postemergence; type: in vivo, Setaria faberi
Outline: as §1

[15] = test system: goosegrass; experiment: Test A postemergence; type: in vivo, Eleusine indica
Outline: as §1

[16] = test system: kochia; experiment: Test A postemergence; type: in vivo, Bassia scoparia
Outline: as §1

[17] = test system: oat, wild; experiment: Test A postemergence; type: in vivo, Avena fatua
From the text: as §2

[18] = test system: pigweed, palmer; experiment: Test A postemergence; type: in vivo, Amaranthus palmeri
Outline: as §1

[19] = test system: ragweed; experiment: Test A postemergence; type: in vivo, Ambrosia artemisiifolia
Outline: as §1

[20] = test system: ryegrass, Italian; experiment: Test A postemergence; type: in vivo, Lolium multiflorum
Outline: as §1

[21] = test system: soybean; experiment: Test A postemergence; type: in vivo, Glycine max
From the text: as §2

[22] = test system: wheat; experiment: Test A postemergence; type: in vivo, Triticum aestivum
From the text: as §2

[23] = test system: galium; experiment: Test A postemergence; type: in vivo, Galium aparine
Outline: as §1

[24] = test system: barnyardgrass; experiment: Test B flooded paddy test; type: in vivo, Echinochloa crus-galli; settings: 250 g ai/ha, Flood, 13 days, 0 to 100 scale (0 no effect, 100 complete control)
Outline: (§3)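 Two-leaf plants, 3 cm flood, in-water application, 13-day greenhouse hold, visual 0–100 rating vs untreated checks.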

[25] = test system: ducksalad; experiment: Test B flooded paddy test; type: in vivo, Heteranthera limosa; settings: 250 g ai/ha, Flood, 13 days, 0 to 100 scale (0 no effect, 100 complete control)
Outline: as §3

[26] = test system: rice; experiment: Test B flooded paddy test; type: in vivo, Oryza sativa; settings: 250 g ai/ha, Flood, 13 days, 0 to 100 scale (0 no effect, 100 complete control)
Outline: as §3

[27] = test system: sedge, umbrella; experiment: Test B flooded paddy test; type: in vivo, Cyperus difformis; settings: 250 g ai/ha, Flood, 13 days, 0 to 100 scale (0 no effect, 100 complete control)
Outline: as §3

[28] = 125 g ai/ha, visual injury after 10 days, 0 to 100 scale, 0 is no effect, 100 is complete control
[29] = 500 g ai/ha, 0 to 100 scale (0 no effect, 100 complete control), 10 days
[30] = 125 g ai/ha, postemergence, 10 days, visual injury, 0 to 100 scale (0 no effect, 100 complete control)
[31] = 500 g ai/ha, Postemergence, 0 to 100 scale

CC1CN(C(=O)c2cc(F)cc(-n3cncn3)c2)c2cccc(Cl)c2O1 (stereo not drawn) [Compound 37]
Plant response rating, Blackgrass [1, 28]: 60 | Plant response rating, Blackgrass [1, 29]: 80 | Plant response rating, Corn [2, 28]: 0 | Plant response rating, Corn [2, 29]: 20 | Plant response rating, Foxtail, Giant [3, 28]: 90 | Plant response rating, Foxtail, Giant [3, 29]: 100 | Plant response rating, Goosegrass [4, 28]: 90 | Plant response rating, Goosegrass [4, 29]: 100 | Plant response rating, Kochia [5, 28]: 0 | Plant response rating, Kochia [5, 29]: 20 | Plant response rating, Oat, Wild [6, 28]: 0 | Plant response rating, Oat, Wild [6, 29]: 60 | Plant response rating, Pigweed, Palmer [7, 28]: 50 | Plant response rating, Pigweed, Palmer [7, 29]: 90 | Plant response rating, Ragweed [8, 28]: 0 | Plant response rating, Ragweed [8, 29]: 0 | Plant response rating, Ryegrass, Italian [9, 28]: 80 | Plant response rating, Ryegrass, Italian [9, 29]: 90 | Plant response rating, Soybean [10, 28]: 0 | Plant response rating, Soybean [10, 29]: 70 | Plant response rating, Wheat [11, 28]: 0 | Plant response rating, Wheat [11, 29]: 20 | Plant response rating, Blackgrass [12, 30]: 30 | Plant response rating, Blackgrass [12, 31]: 80 | Plant response rating, Corn [13, 30]: 10 | Plant response rating, Corn [13, 31]: 80 | Plant response rating, Foxtail, Giant [14, 30]: 50 | Plant response rating, Foxtail, Giant [14, 31]: 90 | Plant response rating, Goosegrass [15, 30]: 40 | Plant response rating, Goosegrass [15, 31]: 90 | Plant response rating, Kochia [16, 30]: 50 | Plant response rating, Kochia [16, 31]: 90 | Plant response rating, Oat, Wild [17, 30]: 0 | Plant response rating, Oat, Wild [17, 31]: 30 | Plant response rating, Pigweed, Palmer [18, 30]: 30 | Plant response rating, Pigweed, Palmer [18, 31]: 60 | Plant response rating, Ragweed [19, 30]: 0 | Plant response rating, Ragweed [19, 31]: 0 | Plant response rating, Ryegrass, Italian [20, 30]: 30 | Plant response rating, Ryegrass, Italian [20, 31]: 90 | Plant response rating, Soybean [21, 30]: 100 | Plant response rating, Soybean [21, 31]: 100 | Plant response rating, Wheat [22, 30]: 40 | Plant response rating, Wheat [22, 31]: 80 | Plant response rating, Galium [23, 30]: 40 | Plant response rating, Galium [23, 31]: 100 | Plant response rating, Barnyardgrass [24]: 0 | Plant response rating, Ducksalad [25]: 0 | Plant response rating, Rice [26]: 0 | Plant response rating, Sedge, Umbrella [27]: 0

CCc1cccc2c1OC(C)CN2C(=O)c1cccc(-n2cncn2)c1 (stereo not drawn) [Compound 43]
Plant response rating, Blackgrass [1, 28]: 10 | Plant response rating, Blackgrass [1, 29]: 40 | Plant response rating, Corn [2, 28]: 10 | Plant response rating, Corn [2, 29]: 20 | Plant response rating, Foxtail, Giant [3, 28]: 60 | Plant response rating, Foxtail, Giant [3, 29]: 90 | Plant response rating, Goosegrass [4, 28]: 60 | Plant response rating, Goosegrass [4, 29]: 90 | Plant response rating, Kochia [5, 28]: 0 | Plant response rating, Kochia [5, 29]: 0 | Plant response rating, Oat, Wild [6, 28]: 20 | Plant response rating, Oat, Wild [6, 29]: 90 | Plant response rating, Pigweed, Palmer [7, 28]: 0 | Plant response rating, Pigweed, Palmer [7, 29]: 80 | Plant response rating, Ragweed [8, 28]: 0 | Plant response rating, Ragweed [8, 29]: 20 | Plant response rating, Ryegrass, Italian [9, 28]: 60 | Plant response rating, Ryegrass, Italian [9, 29]: 90 | Plant response rating, Soybean [10, 29]: 40 | Plant response rating, Wheat [11, 28]: 0 | Plant response rating, Wheat [11, 29]: 10 | Plant response rating, Blackgrass [12, 30]: 0 | Plant response rating, Blackgrass [12, 31]: 0 | Plant response rating, Corn [13, 30]: 10 | Plant response rating, Corn [13, 31]: 30 | Plant response rating, Foxtail, Giant [14, 30]: 10 | Plant response rating, Foxtail, Giant [14, 31]: 70 | Plant response rating, Goosegrass [15, 30]: 0 | Plant response rating, Goosegrass [15, 31]: 40 | Plant response rating, Kochia [16, 30]: 10 | Plant response rating, Kochia [16, 31]: 30 | Plant response rating, Oat, Wild [17, 30]: 0 | Plant response rating, Oat, Wild [17, 31]: 20 | Plant response rating, Pigweed, Palmer [18, 30]: 50 | Plant response rating, Pigweed, Palmer [18, 31]: 20 | Plant response rating, Ragweed [19, 30]: 0 | Plant response rating, Ragweed [19, 31]: 0 | Plant response rating, Ryegrass, Italian [20, 30]: 30 | Plant response rating, Ryegrass, Italian [20, 31]: 60 | Plant response rating, Soybean [21, 30]: 80 | Plant response rating, Soybean [21, 31]: 100 | Plant response rating, Wheat [22, 30]: 10 | Plant response rating, Wheat [22, 31]: 30 | Plant response rating, Galium [23, 30]: 30 | Plant response rating, Galium [23, 31]: 60 | Plant response rating, Barnyardgrass [24]: 0 | Plant response rating, Ducksalad [25]: 0 | Plant response rating, Rice [26]: 0 | Plant response rating, Sedge, Umbrella [27]: 0
